The results in this text go back to BindingDB's records for doi:10.1021/cb700200w (Novartis, 2008).

The target in assay [1] is Cyclin-dependent kinase/G2/mitotic-specific cyclin- 1 (Homo sapiens, UniProt P06493). Kind of assay: Z-LYTE Enzymatic Kinase Assay. The protocol: Enzyme activity was assayed using Z-LYTE Enzymatic Kinase Assay format (Invitrogen Corp., Carlsbad, CA) in the SelectScreen Kinase Profiling Service (Invitrogen Discovery Sciences, Madison, WI).
For a further assay, the target named is T1, Aurora kinase A (Homo sapiens, UniProt O14965).
T1 sequence (O14965 whole entry): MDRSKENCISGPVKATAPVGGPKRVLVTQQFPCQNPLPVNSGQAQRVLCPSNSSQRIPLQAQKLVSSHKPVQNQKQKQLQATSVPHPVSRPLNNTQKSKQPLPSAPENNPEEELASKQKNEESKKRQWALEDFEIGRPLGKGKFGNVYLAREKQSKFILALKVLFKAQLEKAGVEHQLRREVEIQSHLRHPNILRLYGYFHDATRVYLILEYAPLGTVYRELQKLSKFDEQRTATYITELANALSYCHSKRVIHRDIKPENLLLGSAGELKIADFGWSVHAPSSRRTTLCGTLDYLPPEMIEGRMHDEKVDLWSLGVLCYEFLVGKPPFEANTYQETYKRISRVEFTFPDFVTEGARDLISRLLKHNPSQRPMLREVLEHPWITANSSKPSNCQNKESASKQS
Kind of assay: Aurora Kinase SPA Assay. The protocol:
The biochemical activity of compounds was determined by incubation with Aurora A and substrates in the presence ATP/[gamma-33P] ATP. After incubation, the reaction was stopped and the phosphorylated substrate was separated from nonincorporated radioactive ATP using SPA beads (Amersham Pharmacia Biotech), counted using TopCount (Packard) to measure substrate-incorporated phosphate.

Chain of Cyclin-dependent kinase/G2/mitotic-specific cyclin- 1 (P06493 whole entry): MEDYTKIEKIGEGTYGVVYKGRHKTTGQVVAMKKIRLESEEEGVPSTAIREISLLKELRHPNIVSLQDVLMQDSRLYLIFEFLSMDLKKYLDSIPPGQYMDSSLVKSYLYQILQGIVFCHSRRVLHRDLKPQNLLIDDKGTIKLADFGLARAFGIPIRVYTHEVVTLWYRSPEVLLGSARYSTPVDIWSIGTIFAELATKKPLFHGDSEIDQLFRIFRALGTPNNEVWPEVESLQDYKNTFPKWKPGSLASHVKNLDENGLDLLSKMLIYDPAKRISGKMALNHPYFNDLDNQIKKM
Chain of Cyclin-dependent kinase/G2/mitotic-specific cyclin- 1 (P14635 whole entry, further chain): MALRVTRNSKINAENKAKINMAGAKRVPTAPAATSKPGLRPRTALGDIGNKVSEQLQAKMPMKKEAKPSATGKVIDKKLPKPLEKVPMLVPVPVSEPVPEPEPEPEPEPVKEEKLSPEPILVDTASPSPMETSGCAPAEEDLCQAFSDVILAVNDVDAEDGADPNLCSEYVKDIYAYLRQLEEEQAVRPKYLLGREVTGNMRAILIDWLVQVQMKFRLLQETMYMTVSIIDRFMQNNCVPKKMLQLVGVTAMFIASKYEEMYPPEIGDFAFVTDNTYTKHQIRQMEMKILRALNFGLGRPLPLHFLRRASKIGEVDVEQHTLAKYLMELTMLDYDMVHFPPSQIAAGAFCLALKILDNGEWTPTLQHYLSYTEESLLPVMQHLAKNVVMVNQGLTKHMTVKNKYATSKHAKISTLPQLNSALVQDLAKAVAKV

What is called IC50 is the point on the concentration scale where inhibition reaches its midpoint. Read a low IC50 as greater potency in that assay. On to `CNC(=O)c1ccc(Nc2ncc(Br)s2)cc1` [4-[(5-bromo-1,3-thiazol-2-yl)amino]-N-methylbenzamide], for which the midpoint of inhibition in assay [1], the IC50, lay at 4.27 µM. As to `O=C(O)c1ccc(Nc2ncc(Br)s2)cc1` [4-[(5-bromo-1,3-thiazol-2-yl)amino]benzoic acid], the IC50 is over 10 µM in assay [1] and 0.079 µM against Aurora kinase A (pH 7, 22 °C). Consider `Fc1ccc(Nc2ncc(Br)s2)cc1` [5-bromo-N-(4-fluorophenyl)-1,3-thiazol-2-amine], for which the IC50 in assay [1] is over 10 µM; on Aurora kinase A (pH 7, 22 °C), 0.4 µM. On Aurora kinase A, `Brc1cnc(Nc2cccc3ccccc23)s1` [5-bromo-N-(naphthalen-1-yl)-1,3-thiazol-2-amine] registered a half-inhibitory concentration (IC50) of 5 µM.

In the case of `Brc1cnc(Nc2ccccn2)s1` [5-bromo-N-(pyridin-2-yl)-1,3-thiazol-2-amine], the concentration for half-maximal inhibition (IC50) at Aurora kinase A was determined as 2 µM. This IC50 is about 2.5-fold lower than that of the molecule before. Same read-out and setting: the same measure for `Brc1cnc(Nc2cccnc2)s1` [5-bromo-N-(pyridin-3-yl)-1,3-thiazol-2-amine]: 3.6 µM; for `Brc1cnc(Nc2ccncc2)s1` [5-bromo-N-(pyridin-4-yl)-1,3-thiazol-2-amine]: 7.8 µM. For `FC(F)(F)c1ccccc1Nc1ncc(Br)s1` [5-bromo-N-[2-(trifluoromethyl)phenyl]-1,3-thiazol-2-amine], the IC50 against Aurora kinase A is over 10 µM. Molecule `CSc1cccc(Nc2ncc(Br)s2)c1` [5-bromo-N-[3-(methylsulfanyl)phenyl]-1,3-thiazol-2-amine] registered a half-inhibitory concentration (IC50) against Aurora kinase A of 0.5 µM. That is a sub-micromolar value. Same read-out and setting: the same measure for `FC(F)(F)c1cccc(Nc2ncc(Br)s2)c1` [5-bromo-N-[3-(trifluoromethyl)phenyl]-1,3-thiazol-2-amine]: 10 µM.

`Brc1cnc(Nc2ccc(Oc3ccncc3)cc2)s1` [5-bromo-N-[4-(pyridin-4-yloxy)phenyl]-1,3-thiazol-2-amine]: at Aurora kinase A (pH 7, 22 °C), the IC50 was determined as 0.9 µM. This counts as sub-micromolar. Still for that read-out and setting: as for `FC(F)(F)Oc1ccc(Nc2ncc(Br)s2)cc1` [5-bromo-N-[4-(trifluoromethoxy)phenyl]-1,3-thiazol-2-amine], the figure is 17.2 µM. On the same count and under the same terms, as for `FC(F)(F)c1ccc(Nc2ncc(Br)s2)cc1` [5-bromo-N-[4-(trifluoromethyl)phenyl]-1,3-thiazol-2-amine], the figure is 2.4 µM; as for `Brc1cnc(Nc2ccccc2)s1` [5-bromo-N-phenyl-1,3-thiazol-2-amine], 1.1 µM. Same read-out and setting: as for `Fc1ccc(Nc2ncc(Cl)s2)cc1` [5-chloro-N-(4-fluorophenyl)-1,3-thiazol-2-amine], the figure is 1.1 µM. In turn, `N#Cc1cnc(Nc2ccccn2)s1` [ACS Chemical Biology 3180 Compound 63] displayed an IC50 against Aurora kinase A of 2.5 µM. As to `Fc1ccc(Nc2nccs2)cc1` [N-(4-fluorophenyl)-1,3-thiazol-2-amine], the IC50 at Aurora kinase A (pH 7, 22 °C) was over 10 µM. The same measure, in the same setting: as for `Fc1ccc(Nc2ncc(I)s2)cc1` [N-(4-fluorophenyl)-5-iodo-1,3-thiazol-2-amine], the figure is 0.5 µM. Turning to `CC(=O)Nc1ncc(Br)s1` [N-(5-bromo-1,3-thiazol-2-yl)acetamide], on Aurora kinase A, the IC50 is over 10 µM.

At Aurora kinase A, `O=C(Nc1ncc(Br)s1)c1ccccc1` [N-(5-bromo-1,3-thiazol-2-yl)benzamide] registered a 50% inhibitory concentration (IC50) of 5.5 µM.

Take `FC(F)(F)c1cc(Nc2ncc(Br)s2)cc(C(F)(F)F)c1` [N-[3,5-bis(trifluoromethyl)phenyl]-5-bromo-1,3-thiazol-2-amine]: the IC50 against Aurora kinase A is over 10 µM. At Aurora kinase A (pH 7, 22 °C), `CC(=O)Nc1ccc(Nc2ncc(Br)s2)cc1` [N-{4-[(5-bromo-1,3-thiazol-2-yl)amino]phenyl}acetamide] displayed a half-inhibitory concentration (IC50) of 0.36 µM. In other words, the sub-micromolar range. Same read-out and setting: the same measure for `O=C(Nc1ccc(Nc2ncc(Br)s2)cc1)c1ccccc1` [N-{4-[(5-bromo-1,3-thiazol-2-yl)amino]phenyl}benzamide]: 9.2 µM. The molecule `CCOC(=O)c1cccc(Nc2ncc(Br)s2)c1` [ethyl 3-[(5-bromo-1,3-thiazol-2-yl)amino]benzoate] came in with an IC50 against Aurora kinase A of 2.25 µM. On to `CCOC(=O)c1ccc(Nc2ncc(Br)s2)cc1` [ethyl 4-[(5-bromo-1,3-thiazol-2-yl)amino]benzoate], for which the half-inhibitory concentration (IC50) against Aurora kinase A (pH 7, 22 °C) is 5.7 µM. This counts as single-digit micromolar.
